Laboratory results published in ChEMBL document CHEMBL4229332, “Novel multi-target azinesulfonamides of cyclic amine derivatives as potential antipsychotics with pro-social and pro-cognitive effects” (Eur J Med Chem, 2018).
The source made the active and inactive calls. The calls are words filed in the database; no cut-off is given here.

Tests used:
[1] = Drug level in Wistar rat brain at 3 mg/kg, ip measured after 30 mins by LC-MS/MS analysis; type: ADME, organism-based; conditions: read-out: Drug uptake
[2] = Drug level in Wistar rat brain at 3 mg/kg, ip measured after 60 mins by LC-MS/MS analysis; type: ADME, organism-based; conditions: read-out: Drug uptake
[3] = Ratio of drug level in brain to plasma in Wistar rat at 3 mg/kg, ip measured after 60 mins by LC-MS/MS analysis; type: ADME, organism-based; conditions: read-out: BPR
[4] = biological target: D(3) dopamine receptor (Homo sapiens) (UniProt P35462); assay: Antagonist activity at human D3R expressed in CHO-K1 cells assessed as inhibition of dopamine induced cAMP accumulation at 10^-6 M after 30 mins by HTRF method; type: functional, cell-based
Chain of D(3) dopamine receptor (Homo sapiens) (P35462 whole entry): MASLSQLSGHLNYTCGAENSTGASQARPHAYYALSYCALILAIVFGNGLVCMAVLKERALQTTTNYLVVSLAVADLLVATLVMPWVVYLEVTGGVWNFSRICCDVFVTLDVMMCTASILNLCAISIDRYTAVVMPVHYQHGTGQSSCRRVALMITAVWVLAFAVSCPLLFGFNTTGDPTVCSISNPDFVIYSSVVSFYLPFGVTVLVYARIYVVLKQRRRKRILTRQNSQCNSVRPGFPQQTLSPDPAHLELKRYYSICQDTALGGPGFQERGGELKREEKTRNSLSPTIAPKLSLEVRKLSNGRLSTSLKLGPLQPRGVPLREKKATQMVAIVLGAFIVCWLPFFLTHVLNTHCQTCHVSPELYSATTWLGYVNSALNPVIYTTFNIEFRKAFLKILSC

[5] = Drug level in Wistar rat brain at 3 mg/kg, ip measured after 15 mins by LC-MS/MS analysis; type: ADME, organism-based; conditions: read-out: Drug uptake
[6] = Ratio of drug level in brain to plasma in Wistar rat at 3 mg/kg, ip measured after 30 mins by LC-MS/MS analysis; type: ADME, organism-based; conditions: read-out: BPR
[7] = biological target: T1, 5-hydroxytryptamine receptor 1A (Homo sapiens) (UniProt P08908); assay: Partial agonist activity at human 5-HT1AR expressed in CHO-K1 cells assessed as increase in cAMP accumulation at 10^-6 M by chemiluminescence-based assay relative to serotonin; type: functional, cell-based
T1 sequence (whole entry): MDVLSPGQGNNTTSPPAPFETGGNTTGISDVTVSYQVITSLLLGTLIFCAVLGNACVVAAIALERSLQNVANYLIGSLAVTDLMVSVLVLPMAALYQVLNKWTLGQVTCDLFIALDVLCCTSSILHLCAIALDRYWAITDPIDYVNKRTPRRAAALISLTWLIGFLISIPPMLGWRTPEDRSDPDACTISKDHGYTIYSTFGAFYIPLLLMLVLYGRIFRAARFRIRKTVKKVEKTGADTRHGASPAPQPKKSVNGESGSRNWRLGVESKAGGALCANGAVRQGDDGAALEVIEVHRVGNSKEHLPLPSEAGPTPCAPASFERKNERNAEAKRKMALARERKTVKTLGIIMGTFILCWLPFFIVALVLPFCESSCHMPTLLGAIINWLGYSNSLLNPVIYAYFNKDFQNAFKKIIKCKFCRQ

[8] = biological target: T2, 5-hydroxytryptamine receptor 7 (Homo sapiens, UniProt P34969); assay: Antagonist activity at human 5-HT7R expressed in CHO-K1 cells assessed as inhibition of serotonin-induced cAMP accumulation after 30 mins by chemiluminescence-based assay; type: functional, cell-based
T2 sequence (P34969 whole entry): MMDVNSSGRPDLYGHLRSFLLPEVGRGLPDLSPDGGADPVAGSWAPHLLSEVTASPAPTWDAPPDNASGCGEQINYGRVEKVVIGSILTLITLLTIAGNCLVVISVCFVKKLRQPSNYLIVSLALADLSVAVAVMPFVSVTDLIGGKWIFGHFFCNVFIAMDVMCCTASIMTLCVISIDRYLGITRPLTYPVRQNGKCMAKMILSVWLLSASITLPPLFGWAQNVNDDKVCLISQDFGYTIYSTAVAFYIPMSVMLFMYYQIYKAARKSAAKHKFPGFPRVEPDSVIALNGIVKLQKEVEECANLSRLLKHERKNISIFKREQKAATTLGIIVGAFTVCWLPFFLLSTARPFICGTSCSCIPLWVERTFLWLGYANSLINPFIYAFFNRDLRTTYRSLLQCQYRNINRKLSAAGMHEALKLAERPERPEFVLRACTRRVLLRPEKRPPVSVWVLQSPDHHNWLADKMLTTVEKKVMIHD

[9] = biological target: T3, 5-hydroxytryptamine receptor 2A (Homo sapiens, UniProt P28223); assay: Antagonist activity at human 5-HT2AR expressed in HEK293 cells assessed as inhibition of serotonin-induced calcium flux after 30 mins by HTRF method; type: functional, cell-based
T3 sequence (P28223 whole entry): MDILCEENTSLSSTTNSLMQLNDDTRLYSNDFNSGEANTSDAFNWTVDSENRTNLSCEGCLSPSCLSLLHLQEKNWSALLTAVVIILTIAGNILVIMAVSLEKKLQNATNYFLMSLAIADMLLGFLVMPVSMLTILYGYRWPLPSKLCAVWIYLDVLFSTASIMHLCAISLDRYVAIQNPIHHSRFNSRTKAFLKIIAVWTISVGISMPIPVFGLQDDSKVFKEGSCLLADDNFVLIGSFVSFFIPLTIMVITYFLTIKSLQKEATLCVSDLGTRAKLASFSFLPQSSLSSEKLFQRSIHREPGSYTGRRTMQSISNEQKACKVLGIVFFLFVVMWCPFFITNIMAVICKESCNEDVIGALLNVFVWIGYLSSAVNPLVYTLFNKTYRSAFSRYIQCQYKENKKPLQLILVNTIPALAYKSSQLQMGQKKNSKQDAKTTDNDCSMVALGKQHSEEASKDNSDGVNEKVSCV

[10] = biological target: T4, 5-hydroxytryptamine receptor 1A (Homo sapiens, UniProt P08908); assay: Partial agonist activity at human 5-HT1AR expressed in CHO-K1 cells assessed as increase in cAMP accumulation by chemiluminescence-based assay; type: functional, cell-based
T4 sequence (P08908 whole entry): T1 sequence (whole entry)

[11] = Drug level in Wistar rat plasma at 3 mg/kg, ip measured after 60 mins by LC-MS/MS analysis; type: ADME, organism-based
[12] = biological target: T3, 5-hydroxytryptamine receptor 2A; assay: biochemical; type: cell-based, CHO-K1
[13] = biological target: T2, 5-hydroxytryptamine receptor 7; assay: biochemical
Description: Displacement of [3H]-5-CT from human 5-HT7R expressed in HEK293 cell membranes after 1 hr at 37 degC by microbeta counting method

[14] = Ratio of drug level in brain to plasma in Wistar rat at 3 mg/kg, ip measured after 15 mins by LC-MS/MS analysis; type: ADME, organism-based; conditions: read-out: BPR
[15] = biological target: T5, 5-hydroxytryptamine receptor 6 (Homo sapiens, UniProt P50406); assay: Antagonist activity at human 5-HT6R expressed in CHO-K1 cells assessed as inhibition of serotonin-induced cAMP accumulation at 10^-6 M after 30 mins by chemiluminescence-based assay; type: functional, cell-based
T5 sequence (P50406 whole entry): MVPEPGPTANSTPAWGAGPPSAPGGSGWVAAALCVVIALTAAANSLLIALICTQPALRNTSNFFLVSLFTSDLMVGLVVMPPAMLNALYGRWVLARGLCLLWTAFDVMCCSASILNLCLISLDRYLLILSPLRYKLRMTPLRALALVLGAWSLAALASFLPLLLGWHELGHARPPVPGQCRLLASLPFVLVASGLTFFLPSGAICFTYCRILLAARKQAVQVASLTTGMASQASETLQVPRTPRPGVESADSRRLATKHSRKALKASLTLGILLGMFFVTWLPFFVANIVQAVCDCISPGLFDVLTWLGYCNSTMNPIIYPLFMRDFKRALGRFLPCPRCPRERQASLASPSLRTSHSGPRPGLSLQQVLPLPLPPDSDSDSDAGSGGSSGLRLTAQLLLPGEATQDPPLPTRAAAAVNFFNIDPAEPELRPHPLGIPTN

[16] = biological target: D(2) dopamine receptor (Homo sapiens) (UniProt P14416); assay: Antagonist activity at human D2LR expressed in CHO-K1 cells assessed as inhibition of dopamine-induced calcium flux at 10^-6 M by fluorimetric method; type: functional, cell-based
Chain of D(2) dopamine receptor (Homo sapiens) (P14416 whole entry): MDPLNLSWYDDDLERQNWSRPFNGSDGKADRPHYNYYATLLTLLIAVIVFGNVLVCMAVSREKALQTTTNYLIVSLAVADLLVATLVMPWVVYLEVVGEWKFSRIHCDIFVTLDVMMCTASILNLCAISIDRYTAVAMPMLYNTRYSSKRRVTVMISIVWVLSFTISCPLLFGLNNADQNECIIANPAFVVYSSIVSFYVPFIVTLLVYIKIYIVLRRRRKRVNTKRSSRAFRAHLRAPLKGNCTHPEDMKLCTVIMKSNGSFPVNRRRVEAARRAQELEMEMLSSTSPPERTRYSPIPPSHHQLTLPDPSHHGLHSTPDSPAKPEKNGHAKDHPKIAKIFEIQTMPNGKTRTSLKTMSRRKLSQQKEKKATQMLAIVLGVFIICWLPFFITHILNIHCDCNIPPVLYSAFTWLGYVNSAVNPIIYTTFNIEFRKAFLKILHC

[17] = Drug level in Wistar rat plasma at 3 mg/kg, ip measured after 15 mins by LC-MS/MS analysis; type: ADME, organism-based
[18] = biological target: T2, 5-hydroxytryptamine receptor 7; assay: Antagonist activity at human 5-HT7R expressed in CHO-K1 cells assessed as inhibition of serotonin-induced cAMP accumulation at 10^-6 M after 30 mins by chemiluminescence-based assay; type: functional, cell-based
[19] = Toxicity in ip dosed Sprague-Dawley rat assessed as sedation pretreated for 60 mins followed by PCP addition measured for 30 mins starting 15 min after rat reintroduction to auto-tracks; type: organism-based; conditions: in vivo
Rattus norvegicus [20] = assay: Antipsychotic activity in Sprague-Dawley rat assessed as reduction in PCP-induced hyper-locomotion at 1 to 3 mg/kg, ip pretreated for 60 mins followed by PCP addition measured for 30 mins starting 15 min after rat reintroduction to auto-tracks; type: functional, organism-based
[21] = Drug level in Wistar rat plasma at 3 mg/kg, ip measured after 30 mins by LC-MS/MS analysis; type: ADME, organism-based
[22] = biological target: T4, 5-hydroxytryptamine receptor 1A; assay: biochemical
Description: Displacement of [3H]-8-OH-DPAT from human 5-HT1AR expressed in HEK293 cell membranes after 1 hr by microbeta counting method

[23] = biological target: D(2) dopamine receptor (Homo sapiens) (UniProt P14416); assay: Antagonist activity at human D2LR expressed in CHO-K1 cells assessed as inhibition of dopamine-induced calcium flux by fluorimetric method; type: functional, cell-based
[24] = biological target: T3, 5-hydroxytryptamine receptor 2A; assay: Antagonist activity at human 5-HT2AR expressed in HEK293 cells assessed as inhibition of serotonin-induced calcium flux at 10^-6 M after 30 mins by HTRF method; type: functional, cell-based
[25] = biological target: T1, 5-hydroxytryptamine receptor 1A (Homo sapiens); conditions: CHO-K1, 10^-7 M
[26] = biological target: T5, 5-hydroxytryptamine receptor 6; assay: biochemical
Description: Displacement of [3H]-LSD from human 5-HT6R expressed in HEK293 cell membranes after 1 hr at 37 degC by microbeta counting method

[27] = biological target: 5-hydroxytryptamine receptor 1D (Rattus norvegicus) (UniProt P28565); assay: Antagonist activity at rat 5-HT1DR expressed in CHO cells assessed as inhibition of serotonin-induced response by cellular dielectric spectroscopy; type: functional, cell-based
Chain of 5-hydroxytryptamine receptor 1D (Rattus norvegicus) (P28565 whole entry): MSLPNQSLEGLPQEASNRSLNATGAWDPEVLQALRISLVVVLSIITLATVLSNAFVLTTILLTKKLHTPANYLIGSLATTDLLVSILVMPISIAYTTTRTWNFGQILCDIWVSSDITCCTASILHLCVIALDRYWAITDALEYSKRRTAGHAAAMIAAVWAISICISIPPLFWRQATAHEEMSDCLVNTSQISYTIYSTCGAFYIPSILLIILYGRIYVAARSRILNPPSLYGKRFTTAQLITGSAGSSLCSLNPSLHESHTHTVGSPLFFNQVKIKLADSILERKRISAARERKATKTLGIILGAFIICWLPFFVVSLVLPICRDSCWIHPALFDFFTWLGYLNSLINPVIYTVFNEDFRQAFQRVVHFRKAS

Rattus norvegicus [28] = species on record: Rattus norvegicus; assay: animal or person; conditions: Sprague-Dawley, ip, read-out: MED
Description: Antipsychotic activity in ip dosed Sprague-Dawley rat assessed as suppression of avoidance behavior by avoiding foot shock administered 60 mins prior to test by conditioned avoidance response test

Rattus norvegicus [29] = species on record: Rattus norvegicus; assay: animal or person; conditions: Sprague-Dawley, ip, read-out: MED; remark: listed apart in the source
Description: Antipsychotic activity in ip dosed Sprague-Dawley rat assessed as reduction in PCP-induced hyper-locomotion pretreated for 60 mins followed by PCP addition measured for 30 mins starting 15 min after rat reintroduction to auto-tracks

Rattus norvegicus [30] = species on record: Rattus norvegicus; assay: animal or person; conditions: Sprague-Dawley, ip, read-out: MED; remark: listed apart in the source
Description: Reversal of PCP-induced cognitive impairment in ip dosed Sprague-Dawley rat assessed as reduction in time spent exploring novel object over familiar object pretreated for 60 mins followed by PCP addition by novel object recognition assay

Rattus norvegicus [31] = assay: Reversal of ketamine-induced working social withdrawal in Sprague-Dawley rat at 1 mg/kg, ip pretreated for 60 mins followed by ketamine administration; type: functional, organism-based
[32] = Effect on failure incidence during conditioned avoidance response test in ip dosed Sprague-Dawley rat administered 60 mins prior to testing; type: ADME, organism-based; conditions: in vivo
Rattus norvegicus [33] = assay: Toxicity in Wistar rat assessed as increase in prolactin level at 3 mg/kg, po after 60 mins by ELISA; type: organism-based; conditions: in vivo, 1 h
Rattus norvegicus [34] = assay: Toxicity in Sprague-Dawley rat assessed as induction of catalepsy at 30 mg/kg, ip measured every 30 mins up to 240 mins by bar test; type: organism-based; conditions: in vivo
[35] = biological target: T6, Alpha-1A adrenergic receptor (Homo sapiens) (UniProt P35348); assay: Antagonist activity at human adrenergic alpha1A receptor expressed in CHO cells assessed as inhibition of epinephrine-induced calcium flux by fluorimetric method; type: functional, cell-based
T6 sequence (whole entry): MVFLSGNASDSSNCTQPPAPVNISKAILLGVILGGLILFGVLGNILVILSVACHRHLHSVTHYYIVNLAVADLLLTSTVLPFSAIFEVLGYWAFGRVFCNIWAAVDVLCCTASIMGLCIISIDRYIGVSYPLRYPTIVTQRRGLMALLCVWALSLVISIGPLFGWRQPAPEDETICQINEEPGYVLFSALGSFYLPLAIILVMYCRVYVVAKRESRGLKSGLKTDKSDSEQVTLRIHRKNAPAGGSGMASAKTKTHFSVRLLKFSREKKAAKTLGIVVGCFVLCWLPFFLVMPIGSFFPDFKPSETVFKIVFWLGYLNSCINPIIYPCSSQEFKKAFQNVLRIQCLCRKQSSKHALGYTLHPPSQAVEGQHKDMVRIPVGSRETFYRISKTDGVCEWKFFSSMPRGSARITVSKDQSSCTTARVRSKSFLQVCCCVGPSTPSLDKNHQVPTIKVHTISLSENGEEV

[36] = biological target: 5-hydroxytryptamine receptor 1B (Cricetulus griseus) (UniProt P46636); assay: Antagonist activity at 5-HT1BR in CHO cells assessed as inhibition of serotonin-induced response; type: functional, cell-based
Chain of 5-hydroxytryptamine receptor 1B (Cricetulus griseus) (P46636 whole entry): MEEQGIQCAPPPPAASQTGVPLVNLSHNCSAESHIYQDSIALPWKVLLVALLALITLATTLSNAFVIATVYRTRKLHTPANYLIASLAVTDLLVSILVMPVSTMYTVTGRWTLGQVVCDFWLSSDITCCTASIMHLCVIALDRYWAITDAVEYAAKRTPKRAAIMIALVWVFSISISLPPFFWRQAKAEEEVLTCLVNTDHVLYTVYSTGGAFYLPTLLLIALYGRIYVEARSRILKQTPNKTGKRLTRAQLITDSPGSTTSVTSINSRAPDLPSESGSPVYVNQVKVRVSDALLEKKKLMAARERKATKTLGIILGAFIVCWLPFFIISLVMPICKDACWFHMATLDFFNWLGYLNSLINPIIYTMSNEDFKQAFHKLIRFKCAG

Rattus norvegicus [37] = assay: Reversal of PCP-induced cognitive impairment in Sprague-Dawley rat assessed as […] in time spent exploring novel object over familiar object at 0.05 mg/kg, ip pretreated for 60 mins followed by PCP addition by novel object recognition assay; type: functional, organism-based
Rattus norvegicus [38] = assay: Reversal of ketamine-induced working social withdrawal in Sprague-Dawley rat at 0.1 mg/kg, ip pretreated for 60 mins followed by ketamine administration; type: functional, organism-based
[39] = (§1) Toxicity in ip dosed Sprague-Dawley rat assessed as induction of catalepsy measured every 30 mins up to 240 mins by bar test; type: organism-based; conditions: Sprague-Dawley, in vivo
Rattus norvegicus [40] = assay: as §1; type: organism-based; conditions: in vivo
Rattus norvegicus [41] = assay: Effect on failure incidence during conditioned avoidance response test in Sprague-Dawley rat at 0.3 mg/kg, ip administered 60 mins prior to testing; type: ADME, organism-based; conditions: in vivo, 1 h
Rattus norvegicus [42] = species on record: Rattus norvegicus; assay: animal or person; conditions: Sprague-Dawley, ip, read-out: MED; remark: listed apart in the source
Description: Reversal of ketamine-induced working social withdrawal in ip dosed Sprague-Dawley rat pretreated for 60 mins followed by ketamine administration

Row | SMILES | concentration at 0.5 h [1] [nM] | concentration at 1 h [2] [nM] | Kp at 1 h [3] | concentration at 0.25 h [5] [nM] | Kp at 0.5 h [6] | concentration at 1 h [11] [nM] | Ki [12] [nM] | Ki [13] [nM] | Kp at 0.25 h [14] | concentration at 0.25 h [17] [nM] | MTD at 0.5 h [19] [mg/kg] | concentration at 0.5 h [21] [nM] | Ki [22] [nM] | Ki [26] [nM] | also measured
1 | O=S(=O)(c1cncc2ccccc12)N1CCC[C@@H]1CCN1CCN(c2cccc3sccc23)CC1 | 242 | 114 | 1.24 | 266 | 0.48 | 96.7 | 26 | 4 | 0.47 | 564 | 3 | 518 | 24 | – | inhibition [4]: 78%; Activity [7]: 36%; Kb [8]: 0.47 nM; Kb [9]: 9.5 nM; EC50 [10]: 11 nM; inhibition [15]: 73%; inhibition [16]: 100%; inhibition [18]: 100%; Activity (Rattus norvegicus [20]): inactive; Kb [23]: 0.74 nM; inhibition [24]: 100%
2 | O=C(CCCN1CCC2(CC1)C(=O)NCN2c1ccccc1)c1ccc(F)cc1 | – | – | – | – | – | – | – | – | – | – | – | – | – | – | inhibition [25]: 100%
3 | O=S(=O)(c1cncc2ccccc12)N1CCC[C@@H]1CCN1CCN(c2nsc3ccccc23)CC1 | 242 | 123 | 1 | 218 | 0.65 | 125 | 10 | 3 | 0.48 | 472 | 2 | 376 | 14 | 40 | Activity (Rattus norvegicus [20]): inactive
4 | CSc1ccc2c(c1)C(N1CCN(C)CC1)Cc1ccccc1S2 (stereo not given) | – | – | – | – | – | – | – | – | – | – | – | – | – | – | Kb [27]: 14 nM
5 | O=C1Cc2cc(CCN3CCN(c4nsc5ccccc45)CC3)c(Cl)cc2N1 [ZIPRASIDONE] | – | – | – | – | – | – | – | – | – | – | 3 | – | 2 | 20 | minimal effective dose (Rattus norvegicus [28]): 1 mg/kg; minimal effective dose (Rattus norvegicus [29]): 1 mg/kg; minimal effective dose (Rattus norvegicus [30]): 1 mg/kg; Activity (Rattus norvegicus [31]): inactive; MTD at 1 h [32]: 2 mg/kg; Activity (Rattus norvegicus [33]): Toxic; Activity (Rattus norvegicus [34]): Non-Toxic
6 | COc1cccc(OC)c1OCCNCC1COc2ccccc2O1 (stereo not given) | – | – | – | – | – | – | – | – | – | – | – | – | – | – | Kb [35]: 0.24 nM
7 | COc1ccc(NC(=O)c2ccc(-c3ccc(-c4noc(C)n4)cc3C)cc2)cc1N1CCN(C)CC1 | – | – | – | – | – | – | – | – | – | – | – | – | – | – | Kb [36]: 0.065 nM
8 | O=C(CCCN1CCC(O)(c2ccc(Cl)cc2)CC1)c1ccc(F)cc1 [HALOPERIDOL] | – | – | – | – | – | – | – | – | – | – | 0.06 | – | – | – | minimal effective dose (Rattus norvegicus [28]): 0.1 mg/kg; minimal effective dose (Rattus norvegicus [29]): 0.6 mg/kg; Activity (Rattus norvegicus [37]): inactive; MTD at 1 h [32]: 0.2 mg/kg; Activity (Rattus norvegicus [38]): inactive; MTD [39]: 0.2 mg/kg; Activity (Rattus norvegicus [40]): Dose-dependent effect
9 | O=S(=O)(c1cccc2cnccc12)N1CCC[C@H]1CCN1CCN(c2nsc3ccccc23)CC1 | 67.1 | 19.7 | 0.17 | 90.1 | 0.19 | 117 | 18 | 12 | 0.15 | 647 | – | 417 | 37 | 360 | –
10 | Cc1nc2n(c(=O)c1CCN1CCC(c3noc4cc(F)ccc34)CC1)CCCC2 [RISPERIDONE] | – | – | – | – | – | – | – | – | – | – | – | – | – | – | minimal effective dose (Rattus norvegicus [28]): 0.1 mg/kg; Activity (Rattus norvegicus [41]): Non-Toxic; minimal effective dose (Rattus norvegicus [42]): 0.1 mg/kg
11 | O=S(=O)(c1cccc2cnccc12)N1CCC[C@@H]1CCN1CCN(c2nsc3ccccc23)CC1 | 81.9 | 35.5 | 0.45 | 114 | 0.21 | 79.2 | 15 | 1 | 0.28 | 450 | – | 389 | 16 | 40 | –
